The values that follow come from patent US10857105B2, “Compounds and compositions for intracellular delivery of therapeutic agents” (ModernaTX, Inc., priority 2017, dated 2020).

Marks after values point to notes of the source that are not given here.

Data set [1] can be described thus: Metabolite identification of Compound 18 incubated with human plasma. Type of data set: in vitro ADME. Also noted: key to Detection at 0 min / Detection at 30 min / Detection at 60 min / Detection at 90 min: +: Detected; ND: Not detected. The method, then:
Metabolite Identification: Compound 18 (10 μM) was incubated with human plasma (29.0 mg protein/incubation) in incubation mixtures (200 μL final incubation volume) that consisted of 50/50 v/v neat plasma (undiluted)/substrate solution in 50 mM phosphate buffer, pH 7.4). The plasma was obtained from male and female donors and contained K2EDTA anticoagulant. Reactions were started by addition of the substrate solution to human plasma and were stopped at four designated time points (0, 30, 60 and 90 min) by the addition of 600 μL of stop reagent (acetonitrile). Stopped incubation samples were centrifuged (e.g., 10,000×g for 10 min at 10° C.) and the supernatant fractions were analyzed by LC-MS/MS to characterize the metabolites formed from compound 18. Additional incubations were performed with the positive control procaine […] to establish competency of the test system. Samples were analyzed by LC-MS/MS.
In vitro metabolite identification studies using compound 18 were also performed. […] The disappearance of parent compound 18 and the primary metabolite, compound 166, from mouse liver tissue was measured after dosing 0.25 mg/kg mRNA on days 1, 8, and 15.

The subject of a further data set is cynomolgus monkey. The experiment in a line: One-month toxicological evaluation with weekly dosing in cynomolgus monkey. The class given is in vivo. The method, then: NHP studies: Nonhuman primate studies were conducted using naïve cynomolgus monkeys (cynos), 2-4 years old, weighing 2-6 kg. No treatment randomization or blinding methods were used for any of the animal studies. Sample sizes were determined by the resource equation method. For injection, mRNA-LNPs in phosphate buffered saline (PBS) were administered by 60-minute intravenous infusion using a temporary indwelling catheter inserted in a peripheral vein.
Serum ALT and AST levels: Samples were analyzed using a Modular Analytics analyzer.
Serum C5b9 levels: C5b9 sample analysis was performed using an ELISA method. The kit used was Human C5b-9 ELISA Set and Reagent Set B from BD Bioscience. Study samples were analyzed in singlicate diluted 1/100.
bDNA for measurement of mRNA levels: mRNA sample analysis (bDNA method) was performed using the QuantiGene® 2.0 Reagent System kit from Affymetrix. Study samples were lysed prior to analysis using the QuantiGene Sample Processing Kit (Blood samples). Study samples were analyzed in duplicate diluted between 1/100 and 1/1250000.
Next, tolerability and safety of the compound 18-based LNPs in vivo was tested. A full toxicological evaluation of compound 18-based LNPs in both Sprague Dawley rat and cynomolgus monkey was performed using a standard one-month study with weekly dosing at three dose levels in each species. Rats were dosed at 0.05, 0.5, and 2 mg/kg and a non-human primates was dosed at 0.1, 0.3, and 1 mg/kg. LNP-related toxicities associated with MC3-based LNP systems are generally associated with immunological (cytokine and complement activation) and hepatic injury. […] FIGS. 32 and 33 highlight the day 30 levels of alanine transferase (ALT, FIG. 32A) and aspartate aminotransferase (AST, FIG. 32B), two indicators of liver damage.

A short description of data set [2]: One month toxicology evaluation in cynomolgus monkeys (serum ALT, AST, C5b9, MCP-1). The following applies: 1 mg/kg mRNA. Type of data set: in vivo. The method, then: FIGS. 32A-32C are a series of graphs summarizing the results of a one month toxicology evaluation in rat and non-human primate. PBS (phosphate buffered saline) was used as a control. […] The serum levels were measured 24 post fifth dose (n=4). […] The serum levels were measured 24 post fifth dose (n=4).
FIGS. 33A and 33B are a pair of graphs summarizing the results of a one month toxicology evaluation in rats and non-human primates.
FIG. 38 is a graph showing mRNA levels in NHP after repeat dosing over the course of 29 days.

The next data set relates to Sprague Dawley rat liver. The experiment in a line: Lipid remaining in rat liver tissue 48 h post dose (LC-MS/MS). The class given is in vivo. The following applies: Sprague Dawley rat liver 48 h after 2 mg/kg bolus dose mRNA. The source says: Similar results were obtained in the Sprague Dawley rats using human erythropoietin (hEPO) encoding mRNA (FIG. 29C). […] Compound 18 and compound 25 provided a good balance of delivery efficiency and pharmacokinetics.

The mark [3] stands for this setting: 60 min infusion, dosed weekly, after fifth dose (n=4).

With `CCCCCCCCCOC(=O)CCCCCCCN(CCO)CCCCCCCC(=O)OC(CCCCCCCC)CCCCCCCC` [Compound 18, Heptadecan-9-yl 8-((2-hydroxyethyl)(8-(nonyloxy)-8-oxooctyl)amino)octanoate], the “Detection at 0 min” value in data set [1] (Compound 18 (10 μM), human plasma (29.0 mg protein/incubation), 0 min) is reported as “+”. In addition, the “Detection at 30 min” value in data set [1] (Compound 18 (10 μM), human plasma, 30 min) is “+”. Also, in data set [1] (Compound 18 (10 μM), human plasma, 60 min), the “Detection at 60 min” value was “+”. For the same molecule, in data set [1] (Compound 18 (10 μM), human plasma, 90 min), the “Detection at 90 min” value is given as “+”. Further, in data set [1] (in vitro metabolite identification studies), the “initial step of metabolism” value is “hydrolysis of the primary ester”. The “monocyte chemo-attractive protein (MCP-1)” value in the data set with cynomolgus monkey is “slight variation above baseline”. Also, the “ALT and AST levels, day 30” value with cynomolgus monkey (1 mg/kg dose) was “at the same level as the control”. The “circulating mRNA levels after each dose” value in the data set on cynomolgus monkey (bDNA) is listed as “consistent exposures”. In the data set on cynomolgus monkey (weekly dosing one month, 0.1, 0.3 and 1 mg/kg), the toxicological findings entry is listed as “minimal findings at all dose levels”. Also, in data set [2] (setting [3]), the “Serum alanine aminotransferase levels” value was “No statistical difference between PBS pre-dose and day 30 levels”; the “Serum aspartate aminotransferase levels” value was “No statistical difference between PBS pre-dose and day 30 levels”. Besides, the MCP-1 serum concentration result in data set [2] (day 1 and day 29 (n=4)) was “no statistical difference between PBS and Compound 18 at any other timepoint”.

On to `CCCCCC=CCC=CCCCCCCCCC(CCCCCCCCC=CCC=CCCCCC)OC(=O)CCCN(C)C` (stereo not shown) [MC3, heptatriaconta-6,9,28,31-tetraen-19-yl 4-(dimethylamino)butanoate, reference compound], for which the “% dose remaining Rat liver tissue, 48 h” value in the data set on Sprague Dawley rat liver was 61^e %.
